Laboratory results from PMC10529594, “Strasseriolides display in vitro and in vivo activity against trypanosomal parasites and cause morphological and size defects in Trypanosoma cruzi” (PLOS Neglected Tropical Diseases, 2023).
Where “and” joins values, the source holds several entries; their conditions need not be identical. Equal values may be shown once. Read-outs that look alike come from different tables or passages of the source.

Columns and labels:
T. cruzi epimastigotes = assay: FACS analysis of T. cruzi epimastigotes (cell cycle, size and complexity); assay type: cell-based, Trypanosoma cruzi; conditions: 72 h
Description: FACS analysis was used to study cell cycle progression and cellular parameters such as size and complexity. 5 × 10^6 T. cruzi epimastigotes were harvested by centrifugation at 1,000×g and 4°C after 72 hours of incubation in a 6-well plate in the presence and in absence of test compounds. Pellets of cells were washed with 5 mL of PBS and fixed in a solution of 70% ice-cold ethanol/PBS at -20°C overnight. Cells were then collected by centrifugation, washed with PBS and stained with 40 μg/mL of propidium iodide in PBS containing 10 μg/mL of RNase A at 37°C for 30 minutes. Fluorescence was monitored with a Becton Dickinson FACSCalibur using BD CellQuest Pro version 4.0.2 software with a total of 10,000 events acquired for each sample. The different cell populations as well as mean cellular parameters were determined by FlowJo software.

[1] = system: T. cruzi Tulahuen C4 epimastigotes; assay: T. cruzi epimastigotes growth inhibition assay (resazurin); assay type: cell-based, Trypanosoma cruzi; conditions: for EC50: Tulahuen C4, 72 h, resazurin
Description: (§1) The Trypanosoma cruzi Tulahuen strain used is a genetically modified strain that expresses the Escherichia coli β-galactosidase gene, lacZ [31]. It was kindly supplied by Marcel Kaiser (Swiss Tropical and Public Health Institute). The T. cruzi Tulahuen C4 strain was cultured in RPMI-1640 supplemented with 10% inactivated FBS (iFBS), 1.7 mM L-glutamine, 100 U/mL penicillin, and […] at 37°C and 5% CO2. L6 rat skeletal muscle cells were purchased from ATCC (reference CRL-1458) and used as host cells for infection with transgenic T. cruzi trypomastigotes. Epimastigotes were obtained by differentiation in LIT medium with 10% iFBS at 28°C from trypomastigote forms.
A resazurin-based assay was set up in 96-well microplates containing 10 μL of test compound at concentrations ranging from 0.39 to 200 μM and log phase parasites seeded at 2 × 10^5 cells per well in a final volume of 100 μL. Maximum DMSO percentage in the well was 0.2%. Positive and negative growth controls were included. Following 72 hour incubation at 28°C with orbital shaking, 10 μL of resazurin solution were added to each well and the plates were returned to the incubator for 4 hours. Resazurin reduction was correlated to cell viability by fluorescence measurement with excitation and emission wavelength bands centered at 550 and 590 nm, respectively, in a Tecan Infinite 200 microplate reader.

[2] = system: T. cruzi Tulahuen C4 intracellular amastigotes; assay: β-D-galactosidase transgenic T. cruzi assay (intracellular amastigotes in L6 cells, CPRG); assay type: cell-based; conditions: Trypanosoma cruzi; for inhibition at 0.00152588 µM / inhibition at 0.00305176 µM / inhibition at 0.00610352 µM / inhibition at 0.012207 µM / inhibition at 0.0244141 µM / inhibition at 0.0488281 µM / inhibition at 0.0976562 µM / inhibition at 0.195312 µM / inhibition at 0.390625 µM / inhibition at 0.78125 µM / inhibition at 1.5625 µM / inhibition at 3.125 µM / inhibition at 6.25 µM / inhibition at 12.5 µM / inhibition at 25 µM / inhibition at 50 µM: TULAHUEN, L6, T. cruzi amastigotes, 96-hour treatment, read-out: Growth inhibition (%) Average; for EC50: Tulahuen C4 in L6 cells, 96 h, CPRG
Description: as §1
A Thermo Scientific Multidrop Combi dispenser was used to dispense 55 μL of T. cruzi infected L6 cells (2 ×10^3 cells per well) into 384-well Corning assay plates already containing 5 μL of each compound at concentrations ranging from 0.0015 to 50 μM and controls. The plates were incubated at 37°C for 96 hours upon which 15 μL of lysis buffer (0.5 mM CPRG, 0.5% NP40) were added to each well and further incubated for 4 hours in the dark. Absorbance at 585 nm was measured in a Perkin Elmer Envision plate reader.

[3] = system: T. cruzi Tulahuen C4 trypomastigotes; assay: T. cruzi trypomastigote viability assay (resazurin fluorescence); assay type: cell-based, Trypanosoma cruzi; conditions: Trypanosoma cruzi, TULAHUEN, 72 h, Tulahuen C4, 72 hours at 37°C
Description: Tulahuen T. cruzi trypomastigotes were recovered 6 days post infection from the supernatant of harvested infected L6 cells cultures after 3 hours at 37°C. 90 μL of parasite culture at a density of 5 × 10^6 cells in RPMI 1640 media were dispensed into 96 Nunc flat bottom assay plates containing 10 μL of each compound.
In the fluorescence assay, plates were incubated for 24 and 48 hours after which 10 μL of the resazurin solution were added to each well. Plates were further incubated for 24 hours and fluorescence was measured at 550/590 nm using a Tecan Infinite 200 microplate reader. […] Final maximal DMSO percentage in the well was 0.1% and compound concentrations ranged from 0.2 to 100 μM.

[4] = system: T. b. brucei 427 bloodstream forms; assay: Resazurin-based T. b. brucei assay; assay type: cell-based; conditions: Trypanosoma brucei, 72 h, read-out: EC50 T. brucei
Description: Parasites strains adapted to culture in vitro were used. T. b. brucei Lister 427 bloodstream form parasites (information about the identity and genealogy of this strain is available at The Rockefeller University website) were grown in HMI-9 medium supplemented with 10% heat-inactivated fetal bovine serum (iFBS).
Cells in logarithmic phase of growth were added using a Multidrop dispenser (45 μL, 500 bloodstream T. b. brucei parasites per well) to 384-well Corning assay plates already containing 5 μL of each compound and controls, and incubated for 72 hours at 37°C. 10 μL of resazurin were added per well, and the plates were further incubated for 6 hours at 37°C. The final fluorescence was determined at 550–590 nm. Pentamidine at 40 nM and 0.0067% DMSO were used as […] growth controls, respectively.

[5] = system: human macrophage THP-1 cells; assay: Cytotoxicity in THP-1 macrophages (MTT); assay type: cell-based; conditions: for EC50: Homo sapiens, read-out: EC50 THP-1
Description: Cellular toxicity of compounds in the human macrophage host TPH-1 cell line was determined using the colorimetric MTT-based assay as previously described.
THP-1 cells were seeded at 3 × 10^4 cells/well in 96-well plates and were differentiated to macrophages with 20 ng/ml of PMA treatment for 48 h followed by 24 h incubation in fresh medium. Strasseriolides were added at increasing concentrations up to 50 μM and cells were further incubated at 37°C for 72 h. 10 μL of MTT (5 mg/mL in PBS) were added to each well, and plates were incubated for an additional period of 8 h at 37°C. Formazan crystals were dissolved by adding 50 μL of 20% SDS and absorbance was read at 595 nm using a microplate reader.

[6] = Trypanosoma cruzi, TULAHUEN, 72 h

Row | Compound | EC50 [1, 6] | inhibition at 0.00152588 µM [2] | inhibition at 0.00305176 µM [2] | inhibition at 0.00610352 µM [2] | inhibition at 0.012207 µM [2] | inhibition at 0.0244141 µM [2] | inhibition at 0.0488281 µM [2] | inhibition at 0.0976562 µM [2] | inhibition at 0.195312 µM [2] | inhibition at 0.390625 µM [2] | inhibition at 0.78125 µM [2] | inhibition at 1.5625 µM [2] | inhibition at 3.125 µM [2] | inhibition at 6.25 µM [2] | inhibition at 12.5 µM [2] | inhibition at 25 µM [2] | inhibition at 50 µM [2] | EC50 [2] | EC50 [3] | EC50 [4] | also measured
1 | O=C(Cn1ccnc1[N+](=O)[O-])NCc1ccccc1 [Benznidazole, benznidazole] | 13 µM | 5.83% | 3.46% | 5.29% | 6.58% | 1.91% | 12.4% | 10.6% | 16.3% | 10.8% | 34.7% | 74% | 104% | 101% | 103% | 106% | 105% | 1 µM | 3.93 µM | – | Foward Scatter (FSC) - Geometric Mean, single experiment (T. cruzi epimastigotes; EC30): 93.4 and 92.7; Foward Scatter (FSC) - Geometric Mean, Average (T. cruzi epimastigotes; EC30, control 96.65): 93.05; Foward Scatter (FSC) - Geometric Mean, single experiment (T. cruzi epimastigotes; EC70): 96.7 and 91.2; Foward Scatter (FSC) - Geometric Mean, Average (T. cruzi epimastigotes; EC70, control 96.65): 93.95; Foward Scatter (FSC) - Geometric Mean, single experiment (T. cruzi epimastigotes; EC90): 75.3 and 74.1; Foward Scatter (FSC) - Geometric Mean, Average (T. cruzi epimastigotes; EC90, control 96.65): 74.7; EC30, epimastigotes ([1]; 72 h, from dose-response curve): 7.5 µM; EC70, epimastigotes ([1]; 72 h, from dose-response curve): 22.5 µM; EC90 [1, 6]: 96 µM
2 | C/C1=C\[C@H](C)CC[C@@H](O)/C(C)=C/[C@H](C)C[C@@H](C)CC[C@@H]([C@@H](C)C(=O)O)OC(=O)[C@@H](C)C1 [Strasseriolide B, strasseriolide B] | < 0.4 µM | 4.52% | 4.82% | 6.25% | 11.4% | 8.7% | 6.79% | 10.8% | 52.7% | 98.7% | 112% | 113% | 113% | 113% | 113% | 115% | 117% | 0.21 µM | < 0.2 µM | 27 µM | EC50 [1]: < 0.39 µM; Selectivity index intracellular L. donovani versus THP-1 cells [5]: 4962; EC50 ([5]; THP-1, 72 h): 161 µM
3 | C/C1=C\[C@H](C)CCC(=O)/C(C)=C/[C@H](C)C[C@@H](C)CC[C@@H]([C@@H](C)C(=O)O)OC(=O)[C@@H](C)C1 [Strasseriolide A, strasseriolide A] | > 50 µM | 11.7% | 9.68% | 6.95% | 5.87% | 3.26% | 6.89% | 2.91% | 12.5% | 4.42% | 3.14% | 3.55% | 3.27% | 4.63% | 11.4% | 39.4% | 86.7% | 31 µM | > 25 µM | 273 µM | cell growth reduction, epimastigotes ([1]; 72-hour exposure, 50 μM): less than 50%; Selectivity index intracellular L. donovani versus THP-1 cells [5]: > 8; EC50 ([5]; THP-1, 72 h, MTT): > 125 µM
